Test results from ChEMBL document CHEMBL1221377, “SAR development of a series of 8-azabicyclo[3.2.1]octan-3-yloxy-benzamides as kappa opioid receptor antagonists. Part 2” (Bioorg Med Chem Lett, 2010).

Legend:
[1] = Ratio of drug level brain to plasma in Sprague-Dawley rat at 5 umol/kg, iv; type: ADME; conditions: brain and plasma, read-out: BPR
[2] = Apparent permeability from apical to basolateral side of MDCK cells expressing MDR1; type: ADME, cell-based, Canis lupus familiaris; conditions: dog
[3] = Intrinsic clearance in human liver microsomes; type: ADME, Microsome
[4] = Intrinsic clearance in rat liver microsomes; type: ADME, Microsome
[5] = system: Rattus norvegicus; assay: Clearance in Sprague-Dawley rat plasma at 2 umol/kg, iv; type: ADME, organism-based; conditions: in vivo
[6] = Half life in Sprague-Dawley rat at 2 umol/kg, iv; type: ADME, organism-based; conditions: in vivo
[7] = Volume of distribution at steady state in Sprague-Dawley rat at 2 umol/kg, iv; type: ADME, organism-based; conditions: in vivo, read-out: Vdss
[8] = Ratio of drug level brain to plasma in Sprague-Dawley rat at 2 umol/kg, iv; type: ADME; conditions: brain and plasma, read-out: BPR
[9] = Oral bioavailability in Sprague-Dawley rat at 2 umol/kg; type: ADME, organism-based; conditions: in vivo

| SMILES | Kp [1] | Papp A→B [2] [×10⁻⁶ cm/s] | microsomal CLint [3] [µL/min/mg] | microsomal CLint [4] [µL/min/mg] | CL [5] [µL/min/mg] | half-life [6] [h] | Vd [7] [L/kg] | Kp [8] | bioavailability [9] [%] |
| --- | --- | --- | --- | --- | --- | --- | --- | --- | --- |
| CN(C)C(=O)N[C@H]1CC[C@@H](CCN2[C@@H]3CC[C@H]2C[C@@H](Oc2cccc(C(N)=O)c2)C3)CC1 | 0.22 | 1.9 | < 4 | 30 |  |  |  |  |  |
| NC(=O)c1cccc(C[C@H]2C[C@H]3CC[C@@H](C2)N3Cc2ccccc2)c1 |  | 14 | < 4 | 65 | 124 | 1.3 | 6.6 | 1.9 | 5 |
